The target of experiment [1] is T1, adenosine A1 receptor (Bos taurus, UniProt P28190).
T1 construct: were homogenized with a Brinkman polytron and the membranes were collected by centrifugation; from tissue; host or cells: bovine caudate membranes
T1 sequence (P28190 1-326): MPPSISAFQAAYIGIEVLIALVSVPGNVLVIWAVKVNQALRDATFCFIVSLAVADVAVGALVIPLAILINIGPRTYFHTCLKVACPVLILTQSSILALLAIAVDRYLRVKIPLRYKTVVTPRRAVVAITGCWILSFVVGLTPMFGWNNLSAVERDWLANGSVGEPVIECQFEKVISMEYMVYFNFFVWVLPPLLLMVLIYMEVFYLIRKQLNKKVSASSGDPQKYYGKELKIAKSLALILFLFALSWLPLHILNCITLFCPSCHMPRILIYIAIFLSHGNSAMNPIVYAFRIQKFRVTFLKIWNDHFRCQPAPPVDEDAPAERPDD
The experiment is described as follows: Receptor affinity (radioligand binding), A1, [3H]CHA. On the set-up: species or system bovine. Conditions: for Ki: [3H]CHA, room temperature, 2 hours, tissues listed: bovine caudate, guinea pig cortex, guinea pig striatum (only Example 13 marked guinea pig); for Selectivity Ratio (A2 Ki /A1 Ki): radioligand binding. Here is the method: (§1) 1. Receptor Affinity Experiments (Radioligand Binding)
(§2) Tissues (bovine caudate, guinea pig cortex, guinea pig striatum) were homogenized with a Brinkman polytron and the membranes were collected by centrifugation at 40,000×g at 4° C. for 10 min. The membranes were washed by resuspension and centrifugation, resuspended, and incubated in the presence of 1 U/ml adenosine deaminase for 15-30 min. at 37° C. The membranes were diluted, centrifuged once, and resuspended to a final concentration of 0.5-2 mg protein/ml. Adenosine deaminase (0.1 U/ml) was included in the final resuspension. Assays were initiated by addition of membranes. The compounds of the present invention were subjected to the following experimental conditions: A1 determinations/incubated with [^3 H]CHA at room temperature for 2 hours, A2 determinations/incubated with [^3 H]NECA at room temperature for 1 hour. Assays were terminated by filtration, and the filters were counted in scintillation counters.

The target of experiment [2] is adenosine A2 receptor. Put plainly: Receptor affinity (radioligand binding), A2, [3H]NECA. On the set-up: species or system bovine / guinea pig. The note with it: room temperature, 1 hour. The method, then: as §1, §2
The target in experiment [3] is T2, adenosine A1 receptor (Cavia porcellus, UniProt P47745).
T2 construct: from tissue; host or cells: isolated guinea pig left atria
T2 sequence (P47745 1-326): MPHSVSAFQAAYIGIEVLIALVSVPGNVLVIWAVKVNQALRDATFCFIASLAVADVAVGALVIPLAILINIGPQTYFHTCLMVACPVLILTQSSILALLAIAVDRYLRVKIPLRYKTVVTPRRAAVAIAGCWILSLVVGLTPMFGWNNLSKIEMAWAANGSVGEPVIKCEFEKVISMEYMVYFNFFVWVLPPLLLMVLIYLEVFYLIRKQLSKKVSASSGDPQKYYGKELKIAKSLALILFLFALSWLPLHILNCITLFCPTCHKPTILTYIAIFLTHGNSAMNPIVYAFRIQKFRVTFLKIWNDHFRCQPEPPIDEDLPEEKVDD
Put plainly: A1 in vitro functional test: negative inotropic response, left atria, antagonism of NECA. The note with it: for Kb: guinea pig left atria, electrically evoked twitch, NECA agonist, 31° C, Schild plot, read-out: A1 KB (antagonist dissociation constant); for Selectivity Ratio (A2 KB /A1 KB): functional. Type of experiment: cell-based, guinea pig. Here is the method: 2. Adenosine--A1 /A2 In Vitro Functional Tests
(A1 Assay: Negative inotropic response)-Guinea pig left atria were placed in organ baths filled with Krebs Henseleit solution gassed with 95% O2 and 5% CO2 and maintained at a temperature of 31° C. An initial resting tension of 1 gm. was placed on each tissue, which was allowed to equilibrate. Atria were stimulated electrically to produce twitch responses. A dose-response curve for the inhibition of the electrically-evoked twitch response was obtained by cumulative addition of the adenosine agonist […]. After the washout of the tissue, a fixed concentration of test compound was added and the tissue allowed to equilibrate for 1 hr. before cumulative additions of the adenosine agonist 5'-N-ethylcarboxamidoadenosine (NECA) to generate a new dose response curve. This procedure was repeated with different fixed concentrations of test compounds to generate a family of dose response curves. Schild plots were constructed from the resultant concentration-effect curves, and KB (antagonist dissociation constant) values were obtained. The results (see Table VII) are expressed as KB values (concentration of test compound such that one-half of the tissue adenosine receptor population is occupied by the test compound).

This is an account of results in patent US5670501A, “N-substituted 9-alkyladenines” (Discovery Therapeutics, Inc., priority 1994, dated 1997).

By Ki is commonly meant the dissociation constant of the complex between target and ligand, obtained from inhibition or displacement. The term Kb denotes the affinity of an antagonist, worked out from how it opposes an agonist.

As to `CCN(CC)c1nc2c(N[C@H]3C[C@H]4CC[C@@H]3C4)ncnc2n1C` (relative stereo) [Example 10, (±)-N^6-(endo-2'-norbornyl)-8-diethylamino-9-methyladenine], the inhibition constant Ki in experiment [1] was found to be 1 nM; in experiment [2], 0.331 µM. In addition, the “Selectivity Ratio (A2 Ki /A1 Ki)” value in experiment [1] came out at 331. Moreover, in experiment [3], the antagonist equilibrium constant (Kb) was found to be 117 nM.
Take `CC(C)N(C)c1nc2c(N[C@H]3C[C@@H]4C[C@H]3C[C@@H]4O)ncnc2n1C` (relative stereo) [Example 16, (±)-N^6-[endo-2'-(endo-5'-hydroxy)norbornyl]-8-isopropylmethylamino-9-methyladenine]: in experiment [1], the inhibition constant (Ki) was found to be 0.0891 nM and the “Selectivity Ratio (A2 Ki /A1 Ki)” value was 2,626. The affinity in experiment [2], expressed as Ki, was 0.234 µM. For the same compound, in experiment [3], the “Selectivity Ratio (A2 KB /A1 KB)” value was 4450 and the Kb turned out to be 4 nM.
The like results for `Cn1c(Br)nc2c(N[C@H]3C[C@@H]4C[C@H]3C[C@@H]4O)ncnc21` (relative stereo) [Example 17, (±)-N^6-[endo-2'-(endo-5'-hydroxy)norbornyl]-8-bromo-9-methyladenine] were, in that order, 1.17 nM, 59, 0.0692 µM, 65 and 30 nM.
As to `CN(C)c1nc2c(N[C@H]3C[C@@H]4C[C@H]3C[C@@H]4O)ncnc2n1C` (relative stereo) [Example 18, (±)-N^6-[endo-2'-(endo-5'-hydroxy)norbornyl]-8-dimethylamino-9-methyladenine], in experiment [1], affinity was put at a Ki of 2.75 nM and the “Selectivity Ratio (A2 Ki /A1 Ki)” value is 100. In experiment [2], this compound showed a Ki of 0.275 µM. In addition, in experiment [3], the antagonist equilibrium constant (Kb) was determined as 72 nM.
The like results for `Cn1c(Br)nc2c(N[C@H]3C[C@H]4CC(=O)[C@@H]3C4)ncnc21` (relative stereo) [Example 19] were, in that order, 3.47 nM, 100, 0.347 µM and 115 nM.
The like results for `Cn1c(N2CCCCC2)nc2c(N[C@H]3C[C@H]4CC[C@@H]3C4)ncnc21` (relative stereo) [Example 20, (±)-N^6-(endo-2'-norbornyl)-8-piperidinyl-9-methyladenine] were, in that order, 191 nM, > 52, > 10 µM and 240 nM.
Turning to `Cn1cnc2c(N[C@H]3C[C@@H]4C[C@H]3C[C@@H]4O)ncnc21` (relative stereo) [Example 21, (±)-N^6-[endo-2'-(endo-5'-hydroxy)-norbornyl]-9-methyladenine], in experiment [1], the affinity corresponds to a Ki of 19.1 nM and the “Selectivity Ratio (A2 Ki /A1 Ki)” value was determined as 165. This compound also gave a Ki in experiment [2] of 3.16 µM. Besides, in experiment [3], the “Selectivity Ratio (A2 KB /A1 KB)” value is 324 and the Kb turned out to be 309 nM.
As to `Cn1cnc2c(N[C@H]3C[C@@H]4C[C@H]3C[C@H]4O)ncnc21` (relative stereo) [Example 22], in experiment [1], the affinity, expressed as Ki, was 97.7 nM and the “Selectivity Ratio (A2 Ki /A1 Ki)” value came to 323. This compound had a Ki in experiment [2] of 31.6 µM. For the same compound, the antagonist dissociation constant (Kb) in experiment [3] turned out to be 2950 nM.
In the same order, the values of `Cn1cnc2c(N[C@H]3C[C@@H]4C[C@H]3[C@@H](O)C4)ncnc21` (relative stereo) [Example 23] are 85.1 nM, 371, 31.6 µM and 3800 nM.
In the same order, the values of `Cn1cnc2c(N[C@H]3C[C@@H]4C[C@H]3[C@H](O)C4)ncnc21` (relative stereo) [Example 24] are 141 nM, 152, 21.4 µM and 4680 nM.
In the same order, the values of `Cn1cnc2c(N[C@H]3C[C@H]4C[C@@H]3C[C@@H]4O)ncnc21` (relative stereo) [Example 30, (±)-N^6-[exo-2',(exo-5'-hydroxy)-norbornyl]-9-methyladenine] are 363 nM, 1,176, 42.7 µM and 1310 nM.
`Cn1cnc2c(N[C@H]3C[C@H]4C[C@@H]3C[C@H]4O)ncnc21` (relative stereo) [Example 31]: in experiment [1], the affinity corresponds to a Ki of 105 nM and the “Selectivity Ratio (A2 Ki /A1 Ki)” value came to 137. In experiment [2], this compound had a Ki of 14.4 µM. Further, the antagonist equilibrium constant (Kb) in experiment [3] was 4070 nM.
Take `Cn1cnc2c(N[C@H]3C[C@H]4C[C@@H]3[C@@H](O)C4)ncnc21` (relative stereo) [Example 32]: the Ki was 51.3 nM in experiment [1] and > 10 µM in experiment [2]. For the same compound, in experiment [1], the “Selectivity Ratio (A2 Ki /A1 Ki)” value was > 195. Moreover, the Kb in experiment [3] turned out to be 6030 nM.
With `Cn1cnc2c(N[C@@H]3C[C@H]4C[C@@H]3c3ccc(O)cc34)ncnc21` (relative stereo) [Example 36, (±)-N^6-[endo-2'-(5',6'-(6"-hydroxy)benzo)norbornyl]-9-methyladenine], the values for the Ki in experiment [1] and in experiment [2] were 2 nM and 0.631 µM, respectively. For the same compound, the “Selectivity Ratio (A2 Ki /A1 Ki)” value in experiment [1] is 316. Further, the Kb in experiment [3] came to 275 nM.
The like results for `Cn1cnc2c(N[C@H]3C[C@H]4C[C@@H]3c3ccccc34)ncnc21` (relative stereo) [Example 38] were, in that order, 17.8 nM, 5.89 µM, 331 and 1580 nM.
The like results for `Cn1cnc2c(N[C@@H]3C[C@H]4C[C@@H]3c3ccccc34)ncnc21` (relative stereo) [Example 39] were, in that order, 468 nM, 15.5 µM, 33 and 28800 nM.
Consider `COc1ccc2c(c1)[C@H]1C[C@H](Nc3ncnc4c3ncn4C)[C@@H]2C1` (relative stereo) [Example 40], for which, in experiment [1], the inhibitory constant (Ki) came to 8.91 nM and the “Selectivity Ratio (A2 Ki /A1 Ki)” value came out at 631. In experiment [2], this compound had a Ki of 5.62 µM. In addition, in experiment [3], the Kb stood at 1120 nM.
Take `COc1ccc2c(c1)[C@@H]1C[C@H]2[C@H](Nc2ncnc3c2ncn3C)C1` (relative stereo) [Example 41]: in experiment [1], the Ki is 209 nM and the “Selectivity Ratio (A2 Ki /A1 Ki)” value is recorded as > 48. In experiment [2], the Ki was > 10 µM. In addition, the Kb in experiment [3] was determined as 64600 nM.
In the case of `Cn1cnc2c(N[C@@H]3C[C@@H]4CC[C@H]3C4)ncnc21` (relative stereo) [Example 49, N^6-(endo-2-norbornyl)-9-methyladenine, reference compound], in experiment [1], the Ki was found to be 10 nM and the “Selectivity Ratio (A2 Ki /A1 Ki)” value amounted to 617. The affinity in experiment [2] corresponds to a Ki of 6.17 µM. In experiment [3], the “Selectivity Ratio (A2 KB /A1 KB)” value worked out at 36 and the Kb amounted to 550 nM.
`CN(C)c1nc2c(NC3CCCC3)ncnc2n1C` [Example 8, N^6-cyclopentyl-8-dimethylamino-9-methyladenine]: in experiment [1], the inhibitory constant (Ki) was 6.17 nM and the “Selectivity Ratio (A2 Ki /A1 Ki)” value was 219. Further, in experiment [2], the affinity corresponds to a Ki of 1.35 µM. For the same compound, the Kb in experiment [3] was 501 nM.
Take `CSc1nc2c(NC3CCCC3)ncnc2n1C` [Example 12, N^6-cyclopentyl-8-methylthio-9-methyladenine]: in experiment [1], the affinity, expressed as Ki, was 2.5 nM and the “Selectivity Ratio (A2 Ki /A1 Ki)” value turned out to be 145. In experiment [2], this compound returned an inhibition constant Ki of 0.363 µM. In addition, in experiment [3], the Kb was 71 nM.
